# Columns and labels:
# CDK9 = CDK9 (Homo sapiens (Human), UniProt P50750); experiment: In vitro kinase inhibition, KinaseProfiler service of Millipore, residual activity; format: biochemical; conditions: for CDK9 10 nM (RA in %) / remaining activity at 0.01 µM: residual activity at 10 nM compound; for CDK9 100 nM (RA in %) / remaining activity at 0.1 µM: residual activity at 100 nM compound; for remaining activity at 0.01 µM: read-out: CDK9 10 nM (RA in %); for remaining activity at 0.1 µM: read-out: CDK9 100 nM (RA in %)
# Sequence of CDK9 (P50750 whole entry): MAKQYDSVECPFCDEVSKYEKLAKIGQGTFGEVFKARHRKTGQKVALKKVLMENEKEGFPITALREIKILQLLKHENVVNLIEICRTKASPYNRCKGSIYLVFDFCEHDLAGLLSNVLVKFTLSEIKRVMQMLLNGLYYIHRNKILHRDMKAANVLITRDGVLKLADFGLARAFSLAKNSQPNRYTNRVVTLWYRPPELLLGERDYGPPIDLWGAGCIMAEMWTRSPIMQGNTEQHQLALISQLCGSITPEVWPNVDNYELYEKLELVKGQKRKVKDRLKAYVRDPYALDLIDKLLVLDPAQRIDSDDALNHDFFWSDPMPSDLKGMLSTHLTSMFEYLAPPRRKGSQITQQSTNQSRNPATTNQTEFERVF
# Sequence of CDK9 (O60563 whole entry partner): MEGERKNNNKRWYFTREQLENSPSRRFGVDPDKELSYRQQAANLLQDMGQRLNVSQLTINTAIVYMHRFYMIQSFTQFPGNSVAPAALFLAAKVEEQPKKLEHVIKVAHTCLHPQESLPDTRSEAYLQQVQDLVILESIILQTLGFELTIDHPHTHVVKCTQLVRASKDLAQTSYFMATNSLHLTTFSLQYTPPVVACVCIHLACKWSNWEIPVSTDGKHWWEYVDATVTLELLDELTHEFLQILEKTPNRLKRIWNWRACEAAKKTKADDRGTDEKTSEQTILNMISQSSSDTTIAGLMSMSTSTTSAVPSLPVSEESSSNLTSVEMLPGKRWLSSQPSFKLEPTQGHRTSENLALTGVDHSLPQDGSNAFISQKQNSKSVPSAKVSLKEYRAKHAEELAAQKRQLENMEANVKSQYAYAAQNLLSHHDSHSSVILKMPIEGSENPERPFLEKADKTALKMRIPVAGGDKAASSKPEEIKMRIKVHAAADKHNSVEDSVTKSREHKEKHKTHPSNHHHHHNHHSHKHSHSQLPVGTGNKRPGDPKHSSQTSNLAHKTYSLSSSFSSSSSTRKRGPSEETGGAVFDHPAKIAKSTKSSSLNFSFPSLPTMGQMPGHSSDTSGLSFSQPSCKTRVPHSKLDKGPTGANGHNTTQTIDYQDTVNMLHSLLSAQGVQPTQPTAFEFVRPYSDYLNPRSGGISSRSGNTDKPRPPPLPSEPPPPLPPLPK
# Description: In vitro kinase assay analysis may be performed using standard techniques described in the art. These techniques are also used by commercial services providers in order to offer in vitro kinase activity assay services, e.g. the assays offered by Millipore Inc. (worldwide website www(dot)millipore.com), ProQinase GmbH (worldwide website www(dot)proqinase.de) and others.
# In vitro kinase inhibition results shown in columns 7 to 9 in Table 1 were obtained by employing the KinaseProfiler™ service of Millipore and used to select compounds displaying specificity for CDK9. Specifically, it was intended to distinguish the CDK9-specific compounds from other compounds having significant inhibitory potency also with regard to other CDKs.
# [1] = test system: TNF-alpha inducible reporter gene; experiment: Inhibition of TNF-alpha-induced reporter gene expression (luciferase) in HeLa-derived cell line; format: cell-based, human; conditions: remaining luciferase activity in presence of 3 μM of compound as ratio of DMSO-treated cells, TNF-alpha 50 ng/ml; for activity at 3 µM: Homo sapiens, 6 h, read-out: Efficacy (ratio to DMSO) TNF-alpha induced response; for Efficacy (ratio to DMSO) TNF-alpha induced response: 6 hours
# Description: TNF-alpha responsive cell lines like the human HeLa cell line can be used to study cellular responses to TNF-alpha, e.g. transcriptional regulation of a transfected TNF-alpha responsive reporter gene, and effects of kinase inhibitors on this response.
# In order to analyse compound effects on TNF-alpha mediated transcriptional response, a HeLa-derived cell line stably transfected with a TNF-alpha inducible reporter gene was used (Panomics Catalog No. RC0013). The cell line was obtained by co-transfection of a luciferase reporter gene (Panomics P/N LR0051) and pHyg into human cervical epithelial HeLa cells, followed by hygromycin selection. TNFα-induced luciferase activity was used to select clones from the hygromycin-resistant cells. The cell line was maintained and stimulated according to the manufacturer's instructions. Briefly, cells were seeded at 5×10^5/well in 1 ml of growth medium in a 12-well plate and incubated in a humidified incubator at 37° C. and 5% CO2 for 24 hours. Medium was replaced with 1 ml of serum free medium and compounds were added up to concentrations of […]. After 1 hour of incubation, TNF-alpha was added to achieve a final concentration of 50 ng/ml. The culture dish was further incubated in a humidified incubator at 37° C. and 5% CO2 for 6 hours, medium was removed and 100 μL of lysis buffer were added to each well and the assay for luciferase activity was performed according to assay manufacturer's (Promega P/N E1500) recommendations. For more information about this cell line, go to worldwide website www(dot)panomics.com.
# Compound effects on TNF-alpha-induced reporter gene expression is shown in column 6 in Table 1 given below. Indicated is the remaining luciferase activity after incubation in presence of 3 μM of compound as a ratio of the activity of DMSO-treated cells without compound. Specifically, it was intended to distinguish cell permeable compounds from other compounds having significant inhibitory potency with regard to other CDKs, but fail to penetrate cells or are unstable under the conditions of the experiment.
SMILES,CDK9 10 nM (RA in %) (CDK9) [%],CDK9 100 nM (RA in %) (CDK9) [%],remaining activity at 0.01 µM (CDK9) [%],remaining activity at 0.1 µM (CDK9) [%],activity at 3 µM [1] [%],Efficacy (ratio to DMSO) TNF-alpha induced response [1]
"COc1cc(F)ccc1-c1ccnc(NC(=O)C2CCNCC2)c1 [Example 3, N-(4-(4-Fluoro-2-methoxyphenyl)pyridin-2-yl)piperidine-4-carboxamide]",–,–,86,9,5,–
"COc1cc(F)ccc1-c1ccnc(NC(=O)C2CNC(=O)C2)c1 (stereo not shown) [Example 5, N-(4-(4-Fluoro-2-methoxyphenyl)pyridin-2-yl)-5-oxopyrrolidine-3-carboxamide]",–,–,46,5,4,–
"COc1ccc(CC(=O)Nc2cc(-c3ccc(F)cc3OC)ccn2)cc1 [Example 6, N-(4-(4-Fluoro-2-methoxyphenyl)pyridin-2-yl)-2-(4-methoxyphenyl)-acetamide]",–,–,68,16,7,–
"COc1cc(F)ccc1-c1ccnc(NC(=O)Cc2ccccc2)c1 [Example 7, N-(4-(4-Fluoro-2-methoxyphenyl)pyridin-2-yl)-2-phenylacetamide]",–,–,78,17,8,–
"COc1ccc([C@H](C)C(=O)Nc2cc(-c3ccc(F)cc3OC)ccn2)cc1 [Example 11, (2S)—N-(4-(4-Fluoro-2-methoxyphenyl)pyridin-2-yl)-2-(4-methoxyphenyl)-propanamide]",–,–,36,6,7,–
"COc1cc(F)ccc1-c1ccnc(NC(=O)C(C)c2cccnc2)c1 (stereo not shown) [Example 13, N-(4-(4-Fluoro-2-methoxyphenyl)pyridin-2-yl)-2-(pyridin-3-yl)propanamide]",–,–,66,2,4,–
"COc1ccc(CC(=O)Nc2cc(-c3ccc(F)cc3OC)ccn2)cn1 [Example 14, N-(4-(4-Fluoro-2-methoxyphenyl)pyridin-2-yl)-2-(6-methoxypyridin-3-yl)acetamide]",–,–,25,7,4,–
"COc1cc(F)ccc1-c1ccnc(NC(=O)Cc2ccnc(Cl)c2)c1 [Example 19, 2-(2-Chloropyridin-4-yl)-N-(4-(4-fluoro-2-methoxyphenyl)pyridin-2-yl)acetamide]",–,–,49,9,6,–
"COc1cc(F)ccc1-c1ccnc(NC(=O)Cc2ccc(N3CCN(C)CC3)cc2)c1 [Example 20, N-(4-(4-Fluoro-2-methoxyphenyl)pyridin-2-yl)-2-(4-(4-methylpiperazin-1-yl)phenyl)acetamide]",–,–,39,5,8,–
"COc1cc(F)ccc1-c1ccnc(NC(=O)CC(C)c2ccncc2)c1 (stereo not shown) [Example 21, N-(4-(4-Fluoro-2-methoxyphenyl)pyridin-2-yl)-3-(pyridin-4-yl)butanamide]",–,–,88,29,82,–
"COc1cc(F)ccc1-c1ccnc(NC(=O)C(C)Cc2ccncc2)c1 (stereo not shown) [Example 22, N-(4-(4-Fluoro-2-methoxyphenyl)pyridin-2-yl)-2-((pyridin-4-yl)methyl)-propanamide]",–,–,93,39,98,–
"COc1cc(F)ccc1-c1ccnc(NC(=O)C(C)Cc2cccnc2)c1 (stereo not shown) [Example 24, N-(4-(4-Fluoro-2-methoxyphenyl)pyridin-2-yl)-2-((pyridin-3-yl)methyl)-propanamide]",–,–,92,32,104,–

# Now from value to compound, other results behind:
CDK9 10 nM (RA in %) (CDK9) [%],CDK9 100 nM (RA in %) (CDK9) [%],remaining activity at 0.01 µM (CDK9) [%],remaining activity at 0.1 µM (CDK9) [%],SMILES,activity at 3 µM [1] [%],Efficacy (ratio to DMSO) TNF-alpha induced response [1]
99,78,–,–,"COc1cc(F)ccc1-c1ccnc(NC(=O)[C@H]2CCC[C@H](NC(C)=O)C2)c1 (relative stereo) [Example 25, trans-3-Acetamido-N-(4-(4-fluoro-2-methoxyphenyl)-pyridin-2-yl)cyclohexanecarboxamide]",–,–
33,5,–,–,"COc1cc(F)ccc1-c1ccnc(NC(=O)[C@H]2CCC[C@H](NC(C)=O)C2)c1 (relative stereo) [Example 26, trans-3-Acetamido-N-(4-(4-fluoro-2-methoxyphenyl)-pyridin-2-yl)cyclohexanecarboxamide]",–,–
–,–,94,96,"COc1cc(F)ccc1-c1ccnc(NC(=O)[C@@H](C)c2cccnc2)c1 (stereo in doubt) [Example 12, N-(4-(4-Fluoro-2-methoxyphenyl)pyridin-2-yl)-2-(pyridin-3-yl)propanamide]",83,–
–,–,88,23,"COc1cc(F)ccc1-c1ccnc(NC(=O)C2CCCCC2)c1 [Example 1, N-(4-(4-Fluoro-2-methoxyphenyl)pyridin-2-yl)cyclohexanecarboxamide]",23,–
–,–,78,33,"COc1cc(F)ccc1-c1ccnc(NC(=O)CC2CCCCC2)c1 [Example 2, 2-Cyclohexyl-N-(4-(4-fluoro-2-methoxyphenyl)pyridin-2-yl)acetamide]",49,–
–,–,59,4,"COc1cc(F)ccc1-c1ccnc(NC(=O)[C@H]2CC[C@@H](N)CC2)c1 [Example 4, cis-4-Amino-N-(4-(4-fluoro-2-methoxyphenyl)pyridin-2-yl)cyclohexane-carboxamide]",5,–
–,–,93,7,"COc1cc(F)ccc1-c1ccnc(NC(=O)Cc2ccncc2)c1 [Example 8, N-(4-(4-Fluoro-2-methoxyphenyl)pyridin-2-yl)-2-(pyridin-4-yl)acetamide]",4,–
–,–,76,16,"COc1cc(F)ccc1-c1ccnc(NC(=O)Cc2cccs2)c1 [Example 9, N-(4-(4-Fluoro-2-methoxyphenyl)pyridin-2-yl)-2-(thiophen-2-yl)acetamide]",4,–
–,–,68,10,"COc1ccc(F)cc1-c1ccnc(NC(=O)[C@@H](C)c2ccccc2)c1 [Example 10, (2S)—N-(4-(5-Fluoro-2-methoxyphenyl)pyridin-2-yl)-2-phenylpropanamide]",10,–
–,64,84,–,"COc1cc(F)ccc1-c1ccnc(NC(=O)C(C)c2ccncc2)c1 (stereo not shown) [Example 15, N-(4-(4-Fluoro-2-methoxyphenyl)pyridin-2-yl)-2-(pyridin-4-yl)propanamide]",–,0.83
65,7,–,–,"COc1cc(F)ccc1-c1ccnc(NC(=O)C(C)c2ccncc2)c1 (stereo not shown) [Example 16, N-(4-(4-Fluoro-2-methoxyphenyl)pyridin-2-yl)-2-(pyridin-4-yl)propanamide]",–,0.04
114,97,–,–,"COc1ccc(F)cc1-c1ccnc(NC(=O)C(C)c2cccs2)c1 (stereo not shown) [Example 17, N-(4-(5-Fluoro-2-methoxyphenyl)pyridin-2-yl)-2-(thiophen-2-yl)propanamide]",–,0.88
32,5,–,–,"COc1ccc(F)cc1-c1ccnc(NC(=O)C(C)c2cccs2)c1 (stereo not shown) [Example 18, N-(4-(5-Fluoro-2-methoxyphenyl)pyridin-2-yl)-2-(thiophen-2-yl)propanamide]",–,0.07
–,–,95,35,"COc1cc(F)ccc1-c1ccnc(NC(=O)CC(C)c2cccnc2)c1 (stereo not shown) [Example 23, N-(4-(4-Fluoro-2-methoxyphenyl)pyridin-2-yl)-3-(pyridin-3-yl)butanamide]",89,–

# — patent US9067888B2, “Inhibitors of protein kinases” (Ingenium Pharmaceuticals GmbH, priority 2010, dated 2015)
